{"source": "BindingDB's records for patent US9932341", "about": "(Incyte, 2018)", "molecular_target": "T1, Phosphatidylinositol 4,5-bisphosphate 3-kinase catalytic subunit delta isoform (Homo sapiens, UniProt O00329)", "T1 sequence (O00329 whole entry)": "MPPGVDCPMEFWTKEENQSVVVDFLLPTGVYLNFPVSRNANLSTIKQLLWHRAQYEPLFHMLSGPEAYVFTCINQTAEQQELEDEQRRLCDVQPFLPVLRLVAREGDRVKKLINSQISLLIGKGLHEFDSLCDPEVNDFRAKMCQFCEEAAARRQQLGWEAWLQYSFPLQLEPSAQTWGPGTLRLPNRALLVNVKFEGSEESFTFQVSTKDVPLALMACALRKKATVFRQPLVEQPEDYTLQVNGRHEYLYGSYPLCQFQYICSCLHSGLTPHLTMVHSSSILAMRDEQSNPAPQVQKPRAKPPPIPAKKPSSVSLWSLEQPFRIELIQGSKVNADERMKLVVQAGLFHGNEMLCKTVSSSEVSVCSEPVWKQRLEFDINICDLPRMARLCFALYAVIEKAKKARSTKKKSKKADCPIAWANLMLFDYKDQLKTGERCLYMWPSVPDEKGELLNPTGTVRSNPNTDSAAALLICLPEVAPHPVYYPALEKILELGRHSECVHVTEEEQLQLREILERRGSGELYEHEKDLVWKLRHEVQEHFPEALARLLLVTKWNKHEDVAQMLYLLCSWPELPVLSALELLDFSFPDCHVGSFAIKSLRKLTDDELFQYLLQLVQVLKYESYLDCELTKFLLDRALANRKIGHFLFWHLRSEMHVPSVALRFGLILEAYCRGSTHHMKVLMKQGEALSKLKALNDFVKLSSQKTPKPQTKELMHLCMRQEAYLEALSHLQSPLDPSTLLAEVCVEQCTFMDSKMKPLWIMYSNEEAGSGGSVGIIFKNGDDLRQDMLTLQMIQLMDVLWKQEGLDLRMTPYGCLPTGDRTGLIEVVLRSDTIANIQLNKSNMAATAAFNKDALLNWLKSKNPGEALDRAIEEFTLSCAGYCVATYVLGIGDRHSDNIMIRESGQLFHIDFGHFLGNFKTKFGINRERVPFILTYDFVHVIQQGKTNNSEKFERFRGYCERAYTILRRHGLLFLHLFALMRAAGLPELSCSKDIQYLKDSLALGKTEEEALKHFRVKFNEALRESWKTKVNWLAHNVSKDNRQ", "test": "Scintillation Proximity Assay", "procedure": "The kinase reaction was conducted in polystyrene 384-well matrix white plate from Thermo Fisher Scientific in a final volume of 25 uL. Inhibitors were first diluted serially in DMSO and added to the plate wells before the addition of other reaction components. The final concentration of DMSO in the assay was 0.5%. The PI3K assays were carried out at room temperature in 20 mM MOPS, pH 6.7, 10 mM MgCl2, 5 mM DTT and CHAPS 0.03%. Reactions were initiated by the addition of ATP, the final reaction mixture consisted of 20 uM PIP2, 20 uM ATP, 0.2 uCi [γ-33P] ATP, 4 nM PI3K . […] 25 mM EDTA, 400 uM ATP. The final concentration of SPA beads was 1.0 mg/mL. After the plate sealing, plates were shaken overnight at room temperature and centrifuged at 1800 rpm for 10 minutes, the radioactivity of the product was determined by scintillation counting on Topcount (PerkinElmer).", "data": [{"smiles": "COc1c(C(C)n2nc(C)c3c(N)ncnc32)cc(Cl)c(C)c1-c1ccc(C(=O)N(C)CCO)nc1", "note": "(configuration not stated) [US9932341, Example 24]", "values": [{"measurement": "IC50", "result": "< 10", "unit": "nM"}]}, {"smiles": "COc1c(C(C)n2nc(C)c3c(N)ncnc32)cc(Cl)c(C)c1-c1cncnc1", "note": "(configuration not stated) [US9932341, Example 168]", "values": [{"measurement": "IC50", "result": "< 10", "unit": "nM"}]}]}
